Consider 9 compounds from patent publication US8299077B2 (Roche Palo Alto LLC, priority 2009, dated 2012).

pIC50: −log10 of the molar value.

This assay relates to B cell receptor-mediated activation of B cells in human blood (CD69 expression). Briefly: Inhibition of B cell activation in whole blood measured by CD69 expression. The class given is cell-based. The following applies: anti-IgM stimulation, 20 h, 50% decrease of CD69-positive cells that are also CD20-positive. Here is the method: Inhibition of B Cell Activation in Whole Blood Measured by CD69 Expression
A procedure to test the ability of Btk inhibitors to suppress B cell receptor-mediated activation of B cells in human blood is as follows:
Human whole blood (HWB) is obtained from healthy volunteers, with the following restrictions: 24 hr drug-free, non-smokers. Blood is collected by venipuncture into Vacutainer tubes anticoagulated with sodium heparin. Test compounds are diluted to ten times the desired starting drug concentration in PBS (20×), followed by three-fold serial dilutions in 10% DMSO in PBS to produce a nine point dose-response curve. 5.5 μl of each compound dilution is added in duplicate to a 2 ml 96-well V bottom plate (Analytical Sales and Services, #59623-23); 5.5 μl of 10% DMSO in PBS is added to control and no-stimulus wells. HWB (100 μl) is added to each well, and after mixing the plates are incubated at 37 C, 5% CO2, 100% humidity for 30 minutes. Goat F(ab′)2 anti-human IgM (Southern Biotech, #2022-14) (10 μl of a 500 μg/ml solution, 50 μg/ml final concentration) is added to each well (except the no-stimulus wells) with mixing and the plates are incubated for an additional 20 hours.
At the end of the 20 hour incubation, samples are incubated with florescent-probe-labeled anti-bodies (15 μl PE Mouse anti-Human CD20, BD Pharmingen, #555623, and/or 20 ul APC Mouse anti-Human CD69, BD Pharmingen #555533) for 30 minutes, at 37 C, 5% CO2, 100% humidity. Included are induced control, unstained and single stains for compensation adjustments and initial voltage settings. Samples are then lysed with 1 ml of 1× Pharmingen Lyse Buffer (BD Pharmingen #555899), and plates are centrifuged at 1800 rpm for 5 minutes. Supernatants are removed via suction and the remaining pellets are lysed again with another 1 ml of 1× Pharmingen Lyse Buffer, and plates are spun down as before. Supernatants are aspirated and remaining pellets are washed in FACs buffer (PBS+1% FBS). After a final spin, the supernantants are removed and pellets are resuspended in 180 μl of FACs buffer. Samples are transferred to a 96 well plate suitable to be run on the HTS 96 well system on the BD LSR II flow cytometer.
Using appropriate excitation and emission wavelengths for the fluorophores used, data are acquired and percent positive cell values are obtained using Cell Quest Software. Results are initially analyzed by FACS analysis software (Flow Jo). […] The IC50 values are calculated using XLfit software version 3, equation 201.
One may read the pIC50 as −log10 of the IC50, conventionally taken in molar units. Compound `Cn1cc(-c2cccc(-n3ccc4cc(C5CC5)cc(Cl)c4c3=O)c2CO)cc(Nc2ccc(C(=O)N3CCOCC3)cn2)c1=O` [Example I-53, 8-Chloro-6-cyclopropyl-2-(2-hydroxymethyl-3-{1-methyl-5-[5-(morpholine-4-carbonyl)-pyridin-2-ylamino]-6-oxo-1,6-dihydro-pyridin-3-yl}-phenyl)-2H-isoquinolin-1-one] showed a pIC50 of 6.22.

Compound `CN1CCN(c2ccc(Nc3cc(-c4cccc(-n5ccc6cc(C7CC7)cc(F)c6c5=O)c4CO)cn(C)c3=O)nc2)CC1` [Example I-54, 6-Cyclopropyl-8-fluoro-2-(2-hydroxymethyl-3-{1-methyl-5-[5-(4-methyl-piperazin-1-yl)-pyridin-2-ylamino]-6-oxo-1,6-dihydro-pyridin-3-yl}-phenyl)-2H-isoquinolin-1-one] showed a pIC50 of 7.85. The result for `CN1CCN(c2ccc(Nc3cc(-c4cccc(-n5ccc6cc(C7(C)CC7)cc(F)c6c5=O)c4CO)cn(C)c3=O)nc2)CC1` [Example I-55, 8-Fluoro-2-(2-hydroxymethyl-3-{1-methyl-5-[5-(4-methyl-piperazin-1-yl)-pyridin-2-ylamino]-6-oxo-1,6-dihydro-pyridin-3-yl}-phenyl)-6-(1-methyl-cyclopropyl)-2H-isoquinolin-1-one] reads 7.80; that for `Cn1cc(-c2cccc(-n3ccc4cc(C5CC5)cc(F)c4c3=O)c2CO)cc(Nc2ccc(N3CCC(C)(O)CC3)cn2)c1=O` [Example I-57, 6-Cyclopropyl-8-fluoro-2-{2-hydroxymethyl-3-[5-(4-hydroxy-4-methyl-3,4,5,6-tetrahydro-2H-[1,3′]bipyridinyl-6′-ylamino)-1-methyl-6-oxo-1,6-dihydro-pyridin-3-yl]-phenyl}-2H-isoquinolin-1-one], 7.74; that for `Cn1cc(-c2cccc(-n3ccc4cc(C(C)(C)O)cc(F)c4c3=O)c2CO)cc(Nc2ccc(N3CCC(C)(O)CC3)cn2)c1=O` [Example I-58, 8-Fluoro-6-(1-hydroxy-1-methyl-ethyl)-2-{2-hydroxymethyl-3-[5-(4-hydroxy-4-methyl-3,4,5,6-tetrahydro-2H-[1,3′]bipyridinyl-6′-ylamino)-1-methyl-6-oxo-1,6-dihydro-pyridin-3-yl]-phenyl}-2H-isoquinolin-1-one], 8.22. The result for `CN1CCN(c2ccc(Nc3cc(-c4cccc(-n5ccc6cc(C(C)(C)O)cc(F)c6c5=O)c4CO)cn(C)c3=O)nc2)CC1` [Example I-59, 8-Fluoro-6-(1-hydroxy-1-methyl-ethyl)-2-(2-hydroxymethyl-3-{1-methyl-5-[5-(4-methyl-piperazin-1-yl)-pyridin-2-ylamino]-6-oxo-1,6-dihydro-pyridin-3-yl}-phenyl)-2H-isoquinolin-1-one] reads 8.52; that for `Cn1cc(-c2cccc(-n3ccc4cc(C5(C)CC5)cc(F)c4c3=O)c2CO)cc(Nc2ccc(C(=O)N3CCOCC3)cn2)c1=O` [Example I-60, 8-Fluoro-2-(2-hydroxymethyl-3-{1-methyl-5-[5-(morpholine-4-carbonyl)-pyridin-2-ylamino]-6-oxo-1,6-dihydro-pyridin-3-yl}-phenyl)-6-(1-methyl-cyclopropyl)-2H-isoquinolin-1-one], 7.80. The result for `Cn1cc(-c2cccc(-n3ccc4cc(C5(C)CC5)cc(F)c4c3=O)c2CO)cc(Nc2ccc(S(C)(=O)=O)cn2)c1=O` [Example I-61, 8-Fluoro-2-{2-hydroxymethyl-3-[5-(5-methanesulfonyl-pyridin-2-ylamino)-1-methyl-6-oxo-1,6-dihydro-pyridin-3-yl]-phenyl}-6-(1-methyl-cyclopropyl)-2H-isoquinolin-1-one] reads 7.29; that for `Cn1cc(-c2cccc(-n3ccc4cc(C5CC5)cc(F)c4c3=O)c2CO)cc(Nc2ccc(S(C)(=O)=O)cn2)c1=O` [Example I-62, 6-Cyclopropyl-8-fluoro-2-{2-hydroxymethyl-3-[5-(5-methanesulfonyl-pyridin-2-ylamino)-1-methyl-6-oxo-1,6-dihydro-pyridin-3-yl]-phenyl}-2H-isoquinolin-1-one], 7.04.
